# Paper doi:10.1101/2024.08.13.607785v1 (biorxiv, 2024)
# Where two headings read alike, the source gives them in different places.
# Key:
# Test in all cases: biochemical
# [1] = target: Cyclin-dependent kinase 13 ; CDK13 ; Q14004 (Homo sapiens, UniProt Q14004); parameters: species or system mixed lysate of K562, MV4-11, THP-1, NCI-H1155
# [2] = target: Cyclin-dependent kinase 19 ; CDK19 ; Q9BWU1 (Homo sapiens, UniProt Q9BWU1); parameters: species or system mixed lysate of K562, MV4-11, THP-1, NCI-H1155
# [3] = target: Cyclin-dependent kinase 8 ; CDK8 ; P49336 (Homo sapiens, UniProt P49336); parameters: species or system mixed lysate of K562, MV4-11, THP-1, NCI-H1155
# [4] = target: Cyclin-dependent-like kinase 5 ; CDK5 ; Q00535 (Homo sapiens, UniProt Q00535); parameters: species or system mixed lysate of K562, MV4-11, THP-1, NCI-H1155
# [5] = target: High affinity nerve growth factor receptor ; NTRK1 ; P04629 (Homo sapiens, UniProt P04629); parameters: species or system mixed lysate of K562, MV4-11, THP-1, NCI-H1155
# [6] = target: Isoform 2 of Glycogen synthase kinase-3 beta ; GSK3B ; P49841-2 (Homo sapiens, UniProt P49841); parameters: species or system mixed lysate of K562, MV4-11, THP-1, NCI-H1155
# [7] = target: Non-receptor tyrosine-protein kinase TYK2 ; TYK2 ; P29597 (Homo sapiens, UniProt P29597); parameters: species or system mixed lysate of K562, MV4-11, THP-1, NCI-H1155
# [8] = target: 1-phosphatidylinositol 3-phosphate 5-kinase ; PIKFYVE ; Q9Y2I7 (Homo sapiens, UniProt Q9Y2I7); parameters: species or system human cell line lysate
# [9] = target: Bone morphogenetic protein receptor type-1A ; BMPR1A ; P36894 (Homo sapiens, UniProt P36894); parameters: species or system human cell line lysate
# [10] = target: T1, Ephrin type-B receptor 1 ; EPHB1 ; P54762 (Homo sapiens, UniProt P54762); parameters: species or system human cell line lysate
# T1 sequence (P54762 1-984): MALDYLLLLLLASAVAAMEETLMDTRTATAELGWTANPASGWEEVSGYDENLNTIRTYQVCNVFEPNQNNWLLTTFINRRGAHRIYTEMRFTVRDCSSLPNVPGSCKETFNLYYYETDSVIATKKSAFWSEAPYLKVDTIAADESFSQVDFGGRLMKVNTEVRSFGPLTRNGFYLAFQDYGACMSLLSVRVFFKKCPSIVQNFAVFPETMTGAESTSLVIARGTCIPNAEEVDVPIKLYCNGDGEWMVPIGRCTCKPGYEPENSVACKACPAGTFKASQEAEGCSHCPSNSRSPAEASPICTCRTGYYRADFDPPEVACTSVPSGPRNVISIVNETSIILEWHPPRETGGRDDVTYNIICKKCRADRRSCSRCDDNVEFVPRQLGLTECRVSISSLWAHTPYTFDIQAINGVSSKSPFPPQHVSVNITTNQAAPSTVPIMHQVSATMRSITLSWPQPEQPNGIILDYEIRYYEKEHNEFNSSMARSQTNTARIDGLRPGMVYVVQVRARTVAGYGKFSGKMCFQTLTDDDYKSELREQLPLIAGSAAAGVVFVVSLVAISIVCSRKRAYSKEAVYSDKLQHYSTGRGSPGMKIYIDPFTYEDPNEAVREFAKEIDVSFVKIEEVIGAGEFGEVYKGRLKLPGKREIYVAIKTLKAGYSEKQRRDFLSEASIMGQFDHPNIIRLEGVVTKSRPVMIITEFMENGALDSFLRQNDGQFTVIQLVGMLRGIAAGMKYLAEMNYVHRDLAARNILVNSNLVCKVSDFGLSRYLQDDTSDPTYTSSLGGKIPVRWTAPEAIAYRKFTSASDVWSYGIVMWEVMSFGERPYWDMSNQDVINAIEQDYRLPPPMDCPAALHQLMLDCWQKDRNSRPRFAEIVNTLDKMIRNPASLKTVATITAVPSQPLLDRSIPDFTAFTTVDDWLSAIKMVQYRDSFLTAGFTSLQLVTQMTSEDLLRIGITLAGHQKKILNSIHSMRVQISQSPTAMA
# [11] = target: Interferon-induced, double-stranded RNA-activated protein kinase ; EIF2AK2 ; P19525 (Homo sapiens, UniProt P19525); parameters: species or system human cell line lysate
# [12] = target: Mitogen-activated protein kinase 9 ; MAPK9 ; P45984 (Homo sapiens, UniProt P45984); parameters: species or system human cell line lysate
# [13] = target: Serine/threonine-protein kinase Chk2 ; CHEK2 ; O96017 (Homo sapiens, UniProt O96017); parameters: species or system human cell line lysate
# [14] = target: Serine/threonine-protein kinase N2 ; PKN2 ; Q16513 (Homo sapiens, UniProt Q16513); parameters: species or system human cell line lysate
# [15] = target: Tyrosine-protein kinase HCK ; HCK ; P08631 (Homo sapiens, UniProt P08631); parameters: species or system human cell line lysate
# [16] = read-out: BAY-1143572 (10 µM) / %Intensity relative to DMSO
# [17] = read-out: BAY-1251152 (10 µM) / %Intensity relative to DMSO
# Chain of Cyclin-dependent kinase 8 ; CDK8 ; P49336 (P49336 whole entry, one chain of several): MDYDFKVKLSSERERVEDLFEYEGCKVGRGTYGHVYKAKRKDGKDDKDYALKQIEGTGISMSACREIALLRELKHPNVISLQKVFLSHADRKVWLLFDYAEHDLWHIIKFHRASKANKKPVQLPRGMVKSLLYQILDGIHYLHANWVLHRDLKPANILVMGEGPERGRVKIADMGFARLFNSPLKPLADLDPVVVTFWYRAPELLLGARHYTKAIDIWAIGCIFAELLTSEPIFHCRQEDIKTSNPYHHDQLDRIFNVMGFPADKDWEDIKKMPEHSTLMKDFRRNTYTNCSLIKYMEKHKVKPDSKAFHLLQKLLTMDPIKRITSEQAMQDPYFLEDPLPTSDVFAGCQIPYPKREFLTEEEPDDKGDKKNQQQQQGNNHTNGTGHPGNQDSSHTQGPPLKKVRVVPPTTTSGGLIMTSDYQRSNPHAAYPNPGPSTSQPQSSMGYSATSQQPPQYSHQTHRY
# Chain of Tyrosine-protein kinase HCK ; HCK ; P08631 (P08631 whole entry): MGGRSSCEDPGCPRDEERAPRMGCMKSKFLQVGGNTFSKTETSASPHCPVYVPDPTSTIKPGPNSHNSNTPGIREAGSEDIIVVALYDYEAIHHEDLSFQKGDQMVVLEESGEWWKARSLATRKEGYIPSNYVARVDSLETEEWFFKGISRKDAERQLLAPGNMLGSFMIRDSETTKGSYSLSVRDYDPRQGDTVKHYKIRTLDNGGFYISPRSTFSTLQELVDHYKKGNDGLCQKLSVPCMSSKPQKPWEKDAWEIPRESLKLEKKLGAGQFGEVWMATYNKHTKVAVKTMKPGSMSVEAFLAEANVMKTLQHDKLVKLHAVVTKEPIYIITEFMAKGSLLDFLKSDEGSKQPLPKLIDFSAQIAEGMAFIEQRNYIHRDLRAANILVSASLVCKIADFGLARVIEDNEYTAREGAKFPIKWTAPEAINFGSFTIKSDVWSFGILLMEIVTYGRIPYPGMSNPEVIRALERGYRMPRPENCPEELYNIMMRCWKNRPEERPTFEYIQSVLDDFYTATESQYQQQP
# Chain of Bone morphogenetic protein receptor type-1A ; BMPR1A ; P36894 (P36894 whole entry): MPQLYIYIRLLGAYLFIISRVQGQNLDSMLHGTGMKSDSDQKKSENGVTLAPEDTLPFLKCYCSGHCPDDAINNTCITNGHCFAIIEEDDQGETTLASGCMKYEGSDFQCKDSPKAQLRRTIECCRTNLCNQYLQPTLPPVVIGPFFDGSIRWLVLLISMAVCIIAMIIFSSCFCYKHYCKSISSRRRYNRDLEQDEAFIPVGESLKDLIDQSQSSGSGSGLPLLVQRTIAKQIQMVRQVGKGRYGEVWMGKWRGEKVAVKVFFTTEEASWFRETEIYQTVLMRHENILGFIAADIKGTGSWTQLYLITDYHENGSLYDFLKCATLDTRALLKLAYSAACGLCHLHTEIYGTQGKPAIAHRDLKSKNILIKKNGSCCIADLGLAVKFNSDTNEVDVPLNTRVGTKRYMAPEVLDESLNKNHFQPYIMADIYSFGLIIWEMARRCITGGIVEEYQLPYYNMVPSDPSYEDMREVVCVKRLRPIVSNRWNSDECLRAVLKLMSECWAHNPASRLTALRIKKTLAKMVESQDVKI
# Chain of Cyclin-dependent-like kinase 5 ; CDK5 ; Q00535 (Q00535 whole entry, one chain of several): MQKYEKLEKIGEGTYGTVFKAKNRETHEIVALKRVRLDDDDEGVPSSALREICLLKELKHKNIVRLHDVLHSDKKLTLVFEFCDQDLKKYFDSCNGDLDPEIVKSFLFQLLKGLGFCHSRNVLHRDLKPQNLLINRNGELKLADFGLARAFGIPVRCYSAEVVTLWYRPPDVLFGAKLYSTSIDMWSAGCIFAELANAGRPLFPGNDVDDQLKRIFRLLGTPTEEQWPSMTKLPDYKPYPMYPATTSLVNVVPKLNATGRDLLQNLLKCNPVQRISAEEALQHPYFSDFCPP
# Chain of 1-phosphatidylinositol 3-phosphate 5-kinase ; PIKFYVE ; Q9Y2I7 (Q9Y2I7 whole entry): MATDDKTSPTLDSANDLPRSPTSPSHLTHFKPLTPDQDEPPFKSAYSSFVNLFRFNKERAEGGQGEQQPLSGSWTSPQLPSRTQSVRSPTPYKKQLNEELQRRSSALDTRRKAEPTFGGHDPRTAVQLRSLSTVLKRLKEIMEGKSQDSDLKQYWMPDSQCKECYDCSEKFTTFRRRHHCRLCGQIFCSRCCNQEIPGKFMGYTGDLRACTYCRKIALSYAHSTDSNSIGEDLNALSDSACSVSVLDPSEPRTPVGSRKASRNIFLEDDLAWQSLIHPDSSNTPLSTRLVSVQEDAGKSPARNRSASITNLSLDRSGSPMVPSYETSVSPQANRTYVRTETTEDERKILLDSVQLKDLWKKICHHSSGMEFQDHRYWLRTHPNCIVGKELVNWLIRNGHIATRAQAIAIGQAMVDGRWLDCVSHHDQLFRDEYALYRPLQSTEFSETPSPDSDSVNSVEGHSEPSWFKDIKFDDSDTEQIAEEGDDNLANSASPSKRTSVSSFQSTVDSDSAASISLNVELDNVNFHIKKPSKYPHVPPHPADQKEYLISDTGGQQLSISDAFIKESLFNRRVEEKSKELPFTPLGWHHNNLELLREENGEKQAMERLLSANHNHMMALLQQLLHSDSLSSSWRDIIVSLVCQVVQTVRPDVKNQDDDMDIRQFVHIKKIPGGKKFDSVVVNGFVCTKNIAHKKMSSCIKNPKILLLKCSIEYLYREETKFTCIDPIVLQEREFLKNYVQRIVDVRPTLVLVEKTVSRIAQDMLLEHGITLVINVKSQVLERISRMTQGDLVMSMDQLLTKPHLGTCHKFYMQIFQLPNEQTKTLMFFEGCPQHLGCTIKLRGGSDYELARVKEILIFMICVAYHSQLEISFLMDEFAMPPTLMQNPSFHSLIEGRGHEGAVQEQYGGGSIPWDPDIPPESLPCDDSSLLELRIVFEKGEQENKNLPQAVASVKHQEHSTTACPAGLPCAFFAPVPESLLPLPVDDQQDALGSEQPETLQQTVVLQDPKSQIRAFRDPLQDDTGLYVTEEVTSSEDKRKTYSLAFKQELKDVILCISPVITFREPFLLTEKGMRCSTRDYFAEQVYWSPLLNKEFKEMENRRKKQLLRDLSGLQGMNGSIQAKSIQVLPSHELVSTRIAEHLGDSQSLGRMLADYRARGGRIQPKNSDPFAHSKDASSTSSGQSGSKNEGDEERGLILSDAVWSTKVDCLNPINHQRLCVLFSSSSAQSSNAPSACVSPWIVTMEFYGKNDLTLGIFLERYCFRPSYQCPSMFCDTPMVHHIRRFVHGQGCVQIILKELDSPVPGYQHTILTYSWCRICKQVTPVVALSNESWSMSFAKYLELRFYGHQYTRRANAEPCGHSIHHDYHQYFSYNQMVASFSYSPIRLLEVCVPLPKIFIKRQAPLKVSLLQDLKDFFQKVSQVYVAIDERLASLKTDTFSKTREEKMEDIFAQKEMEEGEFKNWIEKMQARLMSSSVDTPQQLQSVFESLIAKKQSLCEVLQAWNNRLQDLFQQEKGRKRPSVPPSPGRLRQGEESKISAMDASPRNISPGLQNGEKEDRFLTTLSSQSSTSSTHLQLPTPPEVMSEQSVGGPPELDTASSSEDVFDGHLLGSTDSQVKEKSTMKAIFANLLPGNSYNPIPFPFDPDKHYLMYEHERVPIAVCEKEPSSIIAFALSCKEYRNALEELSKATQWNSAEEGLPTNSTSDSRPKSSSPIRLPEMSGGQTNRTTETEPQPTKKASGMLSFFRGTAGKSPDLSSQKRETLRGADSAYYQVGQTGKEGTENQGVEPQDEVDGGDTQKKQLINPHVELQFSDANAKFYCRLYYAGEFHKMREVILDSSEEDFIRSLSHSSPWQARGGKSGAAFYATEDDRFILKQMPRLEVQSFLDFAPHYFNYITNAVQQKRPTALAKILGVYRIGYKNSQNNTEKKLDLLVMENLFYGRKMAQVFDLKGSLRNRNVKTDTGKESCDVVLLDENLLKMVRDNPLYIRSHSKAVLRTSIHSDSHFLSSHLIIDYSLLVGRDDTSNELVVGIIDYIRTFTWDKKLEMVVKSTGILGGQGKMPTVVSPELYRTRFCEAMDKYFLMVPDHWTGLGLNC
# Chain of Cyclin-dependent kinase 19 ; CDK19 ; Q9BWU1 (Q9BWU1 whole entry, one chain of several): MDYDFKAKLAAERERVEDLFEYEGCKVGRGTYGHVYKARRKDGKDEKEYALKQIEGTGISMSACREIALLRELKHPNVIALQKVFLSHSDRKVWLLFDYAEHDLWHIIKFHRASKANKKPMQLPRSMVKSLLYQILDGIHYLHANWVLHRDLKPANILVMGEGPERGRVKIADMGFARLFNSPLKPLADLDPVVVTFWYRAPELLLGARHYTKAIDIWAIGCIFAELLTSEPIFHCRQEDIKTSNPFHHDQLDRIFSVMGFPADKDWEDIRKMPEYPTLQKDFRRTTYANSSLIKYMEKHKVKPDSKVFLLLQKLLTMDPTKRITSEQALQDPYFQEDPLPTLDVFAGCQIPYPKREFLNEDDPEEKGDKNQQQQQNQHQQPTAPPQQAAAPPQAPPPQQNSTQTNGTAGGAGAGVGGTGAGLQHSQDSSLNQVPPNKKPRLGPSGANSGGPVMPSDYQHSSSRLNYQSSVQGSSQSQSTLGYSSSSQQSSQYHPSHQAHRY
# Chain of Serine/threonine-protein kinase Chk2 ; CHEK2 ; O96017 (O96017 whole entry, one chain of several): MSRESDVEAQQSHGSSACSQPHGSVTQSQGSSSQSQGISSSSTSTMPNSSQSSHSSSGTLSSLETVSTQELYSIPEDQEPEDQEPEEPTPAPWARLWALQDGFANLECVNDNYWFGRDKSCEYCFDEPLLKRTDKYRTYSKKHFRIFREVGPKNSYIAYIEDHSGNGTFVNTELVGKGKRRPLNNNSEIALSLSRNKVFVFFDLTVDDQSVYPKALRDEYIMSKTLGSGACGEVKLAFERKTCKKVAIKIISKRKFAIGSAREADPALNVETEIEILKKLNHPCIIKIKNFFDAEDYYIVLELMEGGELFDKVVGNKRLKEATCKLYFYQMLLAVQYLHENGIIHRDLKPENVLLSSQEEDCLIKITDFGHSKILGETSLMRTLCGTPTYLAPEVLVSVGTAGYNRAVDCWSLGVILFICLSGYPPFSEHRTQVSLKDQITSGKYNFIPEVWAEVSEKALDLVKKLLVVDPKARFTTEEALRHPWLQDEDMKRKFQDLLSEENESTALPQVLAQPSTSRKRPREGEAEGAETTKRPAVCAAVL
smiles,measurement,setting,value
COc1cc(F)ccc1-c1ncnc(Nc2cccc(C[S@](C)(=N)=O)c2)n1 [BAY-1143572],remaining activity at 10 µM,[1]; [16],89.2%
same,remaining activity at 10 µM,[2]; [16],97.8%
same,remaining activity at 10 µM,[3]; [16],114%
same,remaining activity at 10 µM,[4]; [16],83.6%
same,remaining activity at 10 µM,[5]; [16],106%
same,remaining activity at 10 µM,[6]; [16],7.95%
same,remaining activity at 10 µM,[7]; [16],27.1%
same,remaining activity at 10 µM,[8]; [16],94.3%
same,remaining activity at 10 µM,[9]; [16],164%
same,remaining activity at 10 µM,[10]; [16],91.7%
same,remaining activity at 10 µM,[11]; [16],80%
same,remaining activity at 10 µM,[12]; [16],178%
same,remaining activity at 10 µM,[13]; [16],116%
same,remaining activity at 10 µM,[14]; [16],222%
same,remaining activity at 10 µM,[15]; [16],108%
COc1cc(F)ccc1-c1cc(Nc2cc(CS(C)(=N)=O)ccn2)ncc1F (stereo not drawn) [BAY-1251152],remaining activity at 10 µM,[1]; [17],58.8%
same,remaining activity at 10 µM,[2]; [17],90.5%
same,remaining activity at 10 µM,[3]; [17],116%
same,remaining activity at 10 µM,[4]; [17],84.7%
same,remaining activity at 10 µM,[5]; [17],26.5%
same,remaining activity at 10 µM,[6]; [17],11.9%
same,remaining activity at 10 µM,[7]; [17],89.6%
same,remaining activity at 10 µM,[8]; [17],102%
same,remaining activity at 10 µM,[9]; [17],122%
same,remaining activity at 10 µM,[10]; [17],108%
same,remaining activity at 10 µM,[11]; [17],74.4%
same,remaining activity at 10 µM,[12]; [17],142%
same,remaining activity at 10 µM,[13]; [17],106%
same,remaining activity at 10 µM,[14]; [17],222%
same,remaining activity at 10 µM,[15]; [17],107%
